# According to publication PMC4957076, “Shared mechanism of teratogenicity of anti-angiogenic drugs identified in the chicken embryo model” (Scientific Reports, 2016):
# Where two headings read alike, the source gives them in different places.
# Experiments:
# Rat = conditions: cited from earlier work; for Systemic exposure (AUC) compared to human exposure: exposure at which defects were produced
# Rabbit = conditions: cited from earlier work; for Systemic exposure (AUC) compared to human exposure: exposure at which defects were produced
# [1] = human; cited from earlier work
# [2] = system: Mouse (strain specific) Rabbit; design: method as in PMID 11006136; conditions: cited from earlier work
# chicken embryos [3] = conditions: cited from earlier work
# chicken embryos [4] = conditions: for survival rate: 48 hours post drug application
# Method: We then administered the compounds to developing chicken embryos to observe any teratogenic effects. […] At 48 hours post drug application both the survival rate and the incidence of defects were analyzed. A range of concentrations was tested to determine the effects and optimal concentration that was not 100% lethal.
# Fertilized white leghorn chicken embryos purchased from Henry Stewart Ltd. (Herefordshire, United Kingdom) were maintained in an incubator as described previously. At Hamburger and Hamilton stage 18–20 (E2.5-3)[54] the eggs were windowed and the embryos were prepared for drug exposure. To establish a dose response the drugs were applied once to the embryos and growth was monitored as described previously. In a second set of experiments, filter paper squares were cut 100 μm × 100 μm and soaked in the compound of interest for 10 minutes. While the filter paper squares absorbed the solution, embryonic membranes were removed and the sponge was then placed onto the limb bud. The eggs were sealed with tape and returned to an incubator. The embryos were checked daily for developmental defects and to ensure the filter paper squares remained in place. Control embryos were treated with 100 μL PBS with 0.1% DMSO. Embryos were removed from the eggs and fixed in 5% TCA at 4 degrees for 24 hours. Embryos were then washed in alcian blue for 8 hours, and placed in acid ethanol over night before being dehydrated in 100% ethanol for three one hour treatments. The tissue was then cleared in methyl salicylate. Cartilage was imaged and subsequently measured using a graticule scale and ImageJ. A minimum of 8 embryos was used per drug, per concentration. All animal work was licensed and carried out in accordance with and with approval of UK Home Office and Institutional ethical and welfare guidelines.
# [5] = system: fli1:EGFP zebrafish embryos; experiment: fli1:EGFP zebrafish embryo exposure: survival and intersegmental vessel development; type: in vivo; conditions: for survival: 24 hours after exposure; for relative potency in reducing vessel outgrowth: concentration gradient, within 24 hours of drug exposure
# Method: We then examined the extent and nature of the anti-angiogenic effects of the compounds using transgenic fli1:EGFP zebrafish embryos. The vasculature of these fish is tagged with EGFP and the transparency of the zebrafish allows for visualization of the forming blood vessels and any effect of anti-cancer drugs on their development over time (Fig. 4). A known anti-angiogenic and teratogenic compound (CPS49) was screened alongside the drugs as a positive control at 10 μg/mL (30 μM), a previously established anti-angiogenic concentration.
# fli1:EGFP zebrafish were obtained from the Zebrafish international Resource Centre[29] and maintained in an approved aquarium habitat at 28 °C. At 24 hours post fertilization (hpf) the embryos were checked for GFP expression using a fluorescent microscope and manually dechorionated with forceps, exposed to either a vehicle control, or an anti-angiogenic anti-cancer compound (at 24 hpf) for 24 hours and imaged at 48 hpf. At this point the embryos were anaesthetized in 0.1% tricaine and the length and number of intersegmental vessels (ISV) were quantified as previously described. A minimum of 10 embryos were screened per drug, per concentration, and experiments were performed in triplicate.
# HUVEC cells = experiment: Endothelial cell proliferation assay (CCK-8); type: cell-based, Human; conditions: 18 hours exposure, CCK-8 assay, n = 9
# Method: Anti-angiogenic drugs were screened in a concentration gradient in the HUVEC culture assay. […] Cell proliferation was assessed using a CCK-8 assay (Dojindo). Statistical analysis by two-way Anova. Error represents the standard error of the mean.
# HUVEC cells were purchased from ATCC (Manassas, VA) and cultured as previously described. No further authentication was performed. Cells were seeded at 6.5 × 10^4 cells per well in 100 μL of medium per well. Drugs were diluted in prewarmed DMEM. Serial dilutions were performed from 1000–0.1 nM. The cells were left to grow for 18 hours with exposure to vehicle control (DMSO) or drugs. Experiments were done in triplicate each time. Cellular proliferation was assessed using a CCK-8 assay (Dojindo, Rockville, MD). All plates were read at 450 nm.
# Mouse = conditions: cited from earlier work
# [6] = 2.5 μg/embryo, global treatment
Compound,Clinical Toxicities [1],"survival rate (chicken embryos [4]; 5 μg/embryo, global treatment)","survival rate (chicken embryos [4]; 10 μg/embryo, global treatment) [%]",Defects produced in chicken embryos (chicken embryos [4]; Table 1 summary),defects observed in treated embryos (chicken embryos [4]; in vivo),survival ([5]; 10 μg/mL),survival ([5]; 50 μg/mL),survival ([5]; 100 μg/mL),relative potency in reducing vessel outgrowth [5],Defects produced (Rat; Rat),Systemic exposure (AUC) compared to human exposure (Rat; Rat) [×],Defects produced (Rabbit; Rabbit),Systemic exposure (AUC) compared to human exposure (Rabbit; Rabbit) [×],IC50 (HUVEC cells; Homo sapiens) [nM],Defects produced in chicken embryos (chicken embryos [4]; in vivo),other results
bevacizumab,,,,,,,,,,,,,,,,"embryotoxicity in rats (Rat; rat, in vivo): embryotoxicity; placental transfer in rats (Rat; rat, in vivo): dose-dependent placental transfer; teratogenicity in rabbits (Rabbit; rabbit, in vivo, iv): teratogenicity"
"O=C1CCC(N2C(=O)c3ccccc3C2=O)C(=O)N1 (stereo not shown) [Thalidomide, thalidomide]","Somnolence, constipation, neuropathy, venous thromboembolism and rash/unknown",,,,,,,,,,,,,,,"Defects produced [2]: Increased resorptions, embryotoxicity, eye defects; Systemic exposure (AUC) compared to human exposure [2]: At recommended human dose/Not applicable; Defects produced in chicken embryos (chicken embryos [3]; thalidomide not tested in this paper): Embryolethality, cranial hemorrhaging, micropthalmia, limb defects, spine"
"COc1cc2c(Nc3ccc(Br)cc3F)ncnc2cc1OCC1CCN(C)CC1 [Vandetanib, vandetanib]",Cardiotoxicity,no death occurred,74,"Embryolethality increased, limb, spine, microopthalmia, necrosis of YSM","limb reductions, micropthalmia, twisted spinal cords, and necrosis and hemorrhaging in the YSM",60%,15.38%,10%,least potent,"Increased pre- & post-implantation loss, malformations of heart vessels, skeletal variations, delayed ossification of the skull, vertebrae & sternum.",,,,,,
Nc1cccc2c1C(=O)N(C1CCC(=O)NC1=O)C2=O (stereo not shown) [pomalidomide],,,,,,,,,,,,,,,,teratogenicity in chicken embryos (chicken embryos [3]; at potent anti-inflammatory doses): not teratogenic
"Cc1ccc(Nc2nccc(N(C)c3ccc4c(C)n(C)nc4c3)n2)cc1S(N)(=O)=O [Pazopanib, pazopanib]",Cardiotoxicity,30%,,"Embryolethality increased, limb, spine, necrosis of YSM","malformation of the blood vessels and necrosis in the YSM, and twisted spinal cords",did not affect the survival,83.33%,50%,most potent,"Teratogenic, embryotoxic, fetotoxic & abortifacient. Cardiovascular malformations, incomplete/absent ossification, reduced fetal body weight, pre- and post-implantation embryolethality",0.1,"Increased post-implantation loss, abortion, 100% litter loss",0.02,,,"IC50, endothelial cell proliferation (HUVEC cells): one of the highest IC50s in vitro; survival rate (chicken embryos [4]; 1 μg/embryo, global treatment): 16%; survival rate (chicken embryos [4]; [6]): 22%"
O=C1c2c(F)c(F)c(F)c(F)c2C(=O)N1c1ccc(F)cc1F [CPS49],,,,"Embryolethality, cranial hemorrhaging, micropthalmia, limb defects, spine",,50%,,,,,,,,,,"IC50 (HUVEC cells): < 50 nM; blood vessel outgrowth and number of forming vessels ([5]; 10 μg/mL (30 μM), versus vehicle control 0.1% DMSO): significant reduction in both blood vessel outgrowth and the number of forming vessels; anti-angiogenic activity in chicken embryo (chicken embryos [3]; 10 μg/embryo): potent anti-angiogenic activity"
"CCN(CC)CCNC(=O)c1c(C)[nH]c(/C=C2\C(=O)Nc3ccc(F)cc32)c1C [Sunitinib, sunitinib]",Cardiotoxicity,72%,,,"in most embryos limb defects were observed, some also exhibited microopthalmia and spinal cord twisting",61.90%,21.05%,0%,most potent,,5.5,,0.3,< 10,"Embryolethality increased, limb, spinal, microopthalmia, growth inhibition, necrosis of YSM","Defects produced (Rat; rat, in vivo): Embryolethality increased, fetal skeletal malformations (ribs/vertebrae); Defects produced (Rabbit; rabbit, in vivo): Increased embryolethality, cleft palate malformations"
"CNC(=O)c1ccccc1Sc1ccc2c(/C=C/c3ccccn3)n[nH]c2c1 [Axitinib, axitinib]",Cardiotoxicity,no embryos survived,,"Embryolethality increased, limb, growth inhibition, necrosis of YSM",,40%,42.12%,38.89%,,,,,,,,"survival rate (chicken embryos [4]; [6]): 55.5%; defects observed in treated embryos (chicken embryos [4]; global treatment, surviving embryos): most embryos exhibited necrosis within the surrounding YSM and hemorrhaging; Systemic exposure (AUC) compared to human exposure (Mouse; Mouse/Mice): 10×; Defects produced (Mouse; mouse, in vivo): Increased post implantation loss, cleft palate malformation, variation in skeletal ossification"
"CNC(=O)c1cc(Oc2ccc(NC(=O)Nc3ccc(Cl)c(C(F)(F)F)c3)cc2)ccn1 [Sorafenib, sorafenib]",Cardiotoxicity,54.5%,47,,,18.18%,15.38%,No embryos survived,most potent,"Increased post implantation loss, resorptions, skeletal retardations, retarded fetal weight",0.008,"Increased post implantation loss, resorptions, skeletal retardations, retarded fetal weight",0.008,< 50,"Embryolethality increased, limb, growth inhibition, necrosis of YSM",
"CO[C@H]1C[C@@H]2CC[C@@H](C)[C@@](O)(O2)C(=O)C(=O)N2CCCC[C@H]2C(=O)O[C@H]([C@H](C)C[C@@H]2CC[C@@H](OCCO)[C@H](OC)C2)CC(=O)[C@H](C)/C=C(\C)[C@@H](O)[C@@H](OC)C(=O)[C@H](C)C[C@H](C)/C=C/C=C/C=C/1C [Everolimus, everolimus]","Stomatitis, noninfectious pneumonitis, rash, hyperglycemia and immunosuppression",80%,62.5,,"hemorrhaging, spinal cord twisting and necrosis in the YSM",did not impact the survival,did not impact the survival,35.71%,least potent,"Increased resorption, pre- and post-implantation loss, decreased numbers of live fetuses, malformation and retarded skeletal development",0.04,Increased resorptions,1.6,< 10,"Embryolethality increased, limb, spine, microopthalmia, necrosis of YSM",
